Assay results taken from the supplement of paper PMC11061612.

Columns and labels:
Test in all cases: Bliss excess, mean over the matrix (fraction); higher = more synergy
[1] = system: KLE (Endometrial Carcinoma)
In short: (§1)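 Bliss excess equals the observed combination effect minus the expected value EA + EB − EA·EB, where EA and EB are the effects of each agent alone. Combination Emax is the second-highest inhibition within the matrix. Inhibition was scaled from CellTiter-Glo 2.0 luminescence, with 0 set by vehicle wells and 1 by blank wells, after 72 hours of two-drug dosing of cells plated in 1536-well plates.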

[2] = system: KYSE-150 (Esophageal Squamous Cell Carcinoma)
In short: as §1

[3] = system: PF-382 (T-Lymphoblastic Leukemia)
In short: as §1

[4] = system: KYSE-50 (Esophageal Squamous Cell Carcinoma)
In short: as §1

[5] = system: NCI-H2405 (Lung Adenocarcinoma)
In short: as §1

NH-12 (Neuroblastoma) = system: NH-12 (Neuroblastoma)
In short: as §1

[6] = system: JHH-7 (Hepatocellular Carcinoma)
In short: as §1

[7] = system: BV-173 (Chronic Myelogenous Leukemia)
In short: as §1

[8] = system: MFE-319 (Endometrial Carcinoma)
In short: as §1

[9] = system: LC4-1 (B-Lymphoblastic Leukemia)
In short: as §1

GI-1 (Glioblastoma) = system: GI-1 (Glioblastoma)
In short: as §1

[10] = system: ASH-3 (Thyroid Gland Carcinoma)
In short: as §1

[11] = system: KINGS-1 (Low Grade Glioma)
In short: as §1

[12] = system: H-EMC-SS (Chondrosarcoma)
In short: as §1

NB7 (Neuroblastoma) = system: NB7 (Neuroblastoma)
In short: as §1

EW-13 (Ewing's Sarcoma) = system: EW-13 (Ewing's Sarcoma)
In short: as §1

[13] = system: EMC-BAC-2 (Non-Small Cell Lung Carcinoma)
In short: as §1

[14] = system: HSC-2 (Oral Cavity Carcinoma)
In short: as §1

[15] = system: NCI-H513 (Other Solid Carcinomas)
In short: as §1

[16] = system: HC-1 (Other Blood Carcinomas)
In short: as §1

SMILES | Bliss excess [1] | Bliss excess [2] | Bliss excess [3] | Bliss excess [4] | Bliss excess [5] | Bliss excess (NH-12 (Neuroblastoma)) | Bliss excess [6] | Bliss excess [7] | Bliss excess [8] | Bliss excess [9] | Bliss excess (GI-1 (Glioblastoma)) | Bliss excess [10] | Bliss excess [11] | Bliss excess [12] | Bliss excess (NB7 (Neuroblastoma)) | Bliss excess (EW-13 (Ewing's Sarcoma)) | Bliss excess [13] | Bliss excess [14] | Bliss excess [15] | Bliss excess [16]
CN(C)CCCOc1ccc(-c2ccc3ncc4c(c3c2)n(C2CCOCC2)c(=O)n4C)cn1 [AZD0156] + C=CCn1c(=O)c2cnc(Nc3ccc(N4CCN(C)CC4)cc3)nc2n1-c1cccc(C(C)(C)O)n1 [AZD1775] (first compound max 1 µM, partner max 1 µM) | 0.0559 | -0.0386 | -0.0121 | -0.0116 | -0.0544 | -0.0406 | -0.0412 | 0.0116 | -0.0706 | -0.0353 | -0.0207 | 0.0012 | -0.0779 | -0.0535 | -0.0198 | 0.0215 | -0.0289 | -0.0507 | 0.001 | -0.0238
CN(C)CCCOc1ccc(-c2ccc3ncc4c(c3c2)n(C2CCOCC2)c(=O)n4C)cn1 [AZD0156] + CCN(CCO)CCCOc1ccc2c(Nc3cc(CC(=O)Nc4cccc(F)c4)[nH]n3)ncnc2c1 [AZD2811] (first compound max 1 µM, 7x7, partner max 1 µM) | -0.0232 | -0.0382 | -0.0115 | -0.0128 | -0.0241 | -0.0263 | -0.0296 | -0.0331 | -0.0431 | -0.108 | 0.0555 | 0.0032 | -0.0173 | -0.0504 | -0.0082 | 0.009 | -0.0005 | 0.0232 | -0.0019 | -0.008
CN(C)CCCOc1ccc(-c2ccc3ncc4c(c3c2)n(C2CCOCC2)c(=O)n4C)cn1 [AZD0156] + C[C@@H]1COCCN1C2=NC(=NC(=C2)C3(CC3)[S@](=N)(=O)C)C4=C5C=CNC5=NC=C4 [AZD6738] (first compound max 1 µM, 7x7, partner max 10 µM) | -0.0567 | 0.0146 | 0.0357 | 0.0101 | -0.0027 | -0.0215 | 0.0082 | 0.0179 | -0.0027 | -0.0743 | -0.0234 | 0.0429 | -0.0474 | -0.0707 | 0.0348 | 0.0006 | 0.0272 | 0.0867 | 0.0235 | -0.0214
CN(C)CCCOc1ccc(-c2ccc3ncc4c(c3c2)n(C2CCOCC2)c(=O)n4C)cn1 [AZD0156] + O=C(c1cc(Cc2n[nH]c(=O)c3ccccc23)ccc1F)N1CCN(C(=O)C2CC2)CC1 [Olaparib] (first compound max 3 µM, partner max 3 µM) | -0.0506 | 0.116 | 0.102 | 0.0152 | -0.0471 | -0.0131 | 0.117 | 0.092 | 0.0188 | 0.25 | 0.0337 | -0.0311 | -0.0057 | 0.029 | 0.115 |  | 0.147 | 0.156 | -0.0347 | 0.134
C=CCn1c(=O)c2cnc(Nc3ccc(N4CCN(C)CC4)cc3)nc2n1-c1cccc(C(C)(C)O)n1 [AZD1775] + C1CN(CCC1(C(=O)N[C@@H](CCO)C2=CC=C(C=C2)Cl)N)C3=NC=NC4=C3C=CN4 [Capivasertib] (first compound max 3 µM, partner max 3 µM) | -0.0627 | 0.0064 | 0.144 | -0.0306 | -0.0891 | -0.0728 | -0.0045 | 0.0291 | -0.0524 | -0.0233 | 0.0543 | -0.0086 | -0.0687 | -0.0422 | -0.0648 |  | 0.0514 | 0.0724 | -0.0372 | 0.0514
C=CCn1c(=O)c2cnc(Nc3ccc(N4CCN(C)CC4)cc3)nc2n1-c1cccc(C(C)(C)O)n1 [AZD1775] + C[C@@H]1COCCN1C2=NC(=NC(=C2)C3(CC3)[S@](=N)(=O)C)C4=C5C=CNC5=NC=C4 [AZD6738] (first compound max 1 µM, partner max 10 µM) | -0.0361 | -0.029 | -0.0022 | 0.0328 | -0.0039 | 0.0262 | 0.0273 | 0.0199 | 0.0583 | -0.0011 | 0.0753 | 0.0987 | -0.0475 | -0.0843 | -0.025 | 0.0217 | 0.0125 | 0.0675 | -0.0058 | -0.017
C=CCn1c(=O)c2cnc(Nc3ccc(N4CCN(C)CC4)cc3)nc2n1-c1cccc(C(C)(C)O)n1 [AZD1775] + O=C(c1cc(Cc2n[nH]c(=O)c3ccccc23)ccc1F)N1CCN(C(=O)C2CC2)CC1 [Olaparib] (first compound max 1 µM, partner max 10 µM) | -0.0499 | 0.0282 | -0.0265 | -0.0206 | -0.0675 | -0.0167 | -0.0398 | 0.0184 | -0.0235 | 0.0226 | 0.0056 | -0.0054 | -0.0777 | -0.0807 | -0.0171 | -0.0801 | -0.0526 | -0.0249 | -0.0399 | -0.0393
CCN(CCO)CCCOc1ccc2c(Nc3cc(CC(=O)Nc4cccc(F)c4)[nH]n3)ncnc2c1 [AZD2811] + C=CCn1c(=O)c2cnc(Nc3ccc(N4CCN(C)CC4)cc3)nc2n1-c1cccc(C(C)(C)O)n1 [AZD1775] (first compound max 1 µM, partner max 1 µM) | -0.0513 | 0.0438 | -0.0432 | 0.0006 | -0.021 | -0.0012 | -0.0186 | -0.0222 | -0.0361 | -0.109 | 0.0285 | -0.016 | -0.0173 | -0.0261 | 0.0497 | 0.0393 | -0.0112 | 0.0771 | -0.0195 | 0.0697
COc1nnc2ccc(N3CCC(c4ccc(OCCN5CCN(C)C(=O)[C@H]5C)cc4)CC3)nn12 [AZD5153] + CN(CC[C@H](CSC1=CC=CC=C1)NC2=C(C=C(C=C2)S(=O)(=O)NC(=O)C3=CC=C(C=C3)N4CCC(CC4)[C@H](C5=CC=CC=C5C6=CC=C(C=C6)Cl)O)S(=O)(=O)C(F)(F)F)CCO [AZD4320] (first compound max 1 µM, 7x7, partner max 1 µM) | 0.0847 | 0.0321 | 0.0343 | 0.0999 | 0.0342 | -0.0413 |  | -0.0879 | -0.0369 |  |  | 0.107 |  |  |  | -0.0243 | 0.0491 |  | -0.0177 | -0.0468
Cc1c2c(nn1C)CSCc1cc(n(C)n1)CSc1cc(c3ccccc3c1)OCCCc1c(C(=O)O)n(C)c3c-2c(Cl)ccc13 [AZD5991] + CC1(C)CCC(CN2CCN(c3ccc(C(=O)NS(=O)(=O)c4ccc(NCC5CCOCC5)c([N+](=O)[O-])c4)c(Oc4cnc5[nH]ccc5c4)c3)CC2)=C(c2ccc(Cl)cc2)C1 [Venetoclax] (first compound max 1 µM, 7x7, partner max 1 µM) | -0.0505 | -0.0324 | 0.0223 | -0.0575 | -0.0346 | 0.139 | 0.0183 | 0.0178 | 0.0377 | 0.0705 | 0.0476 | -0.038 | -0.0771 | 0.0646 | -0.0612 | 0.0893 | -0.0512 | 0.0693 | -0.0072 | 
Cc1c2c(nn1C)CSCc1cc(n(C)n1)CSc1cc(c3ccccc3c1)OCCCc1c(C(=O)O)n(C)c3c-2c(Cl)ccc13 [AZD5991] + CCN(CCO)CCCOc1ccc2c(Nc3cc(CC(=O)Nc4cccc(F)c4)[nH]n3)ncnc2c1 [AZD2811] (first compound max 1 µM, 7x7, partner max 1 µM) | -0.0923 | -0.0339 | 0.0276 |  | -0.0164 | -0.0331 | 0.0144 | -0.0554 | 0.0215 | -0.0464 | 0.0731 | -0.014 | -0.0253 | 0.027 | 0.0679 | 0.032 | 0.0438 | 0.0322 | -0.0026 | 0.13
Cc1c2c(nn1C)CSCc1cc(n(C)n1)CSc1cc(c3ccccc3c1)OCCCc1c(C(=O)O)n(C)c3c-2c(Cl)ccc13 [AZD5991] + Cc1cc2ncnn2cc1Nc1ncc2c(n1)n(C1CCOCC1)c(=O)n2C [AZD7648] (first compound max 1 µM, 7x7, partner max 10 µM) | -0.0598 | -0.0195 | 0.038 | -0.0461 | -0.0391 | -0.061 | -0.0598 | -0.0512 | -0.0534 | 0.0017 | 0.0021 | -0.0739 | -0.0095 | 0.0025 | -0.0079 | 0.014 | -0.0141 |  | -0.0127 | -0.024
CS(=O)(=O)CCNCc1ccc(-c2ccc3ncnc(Nc4ccc(OCc5cccc(F)c5)c(Cl)c4)c3c2)o1 [Lapatinib] + NC1(c2ccc(-c3nc4ccn5c(=O)[nH]nc5c4cc3-c3ccccc3)cc2)CCC1 [MK-2206] (first compound max 10 µM, 7x7, partner max 10 µM) |  | 0.0159 | -0.0144 |  | -0.111 |  | -0.036 |  | -0.0155 | -0.0073 | 0.0275 | 0.0178 | 0.032 | -0.0597 | 0.0221 |  |  | 0.0806 | -0.0369 | 
CC(=O)c1c(C)c2cnc(Nc3ccc(N4CCNCC4)cn3)nc2n(C2CCCC2)c1=O [Palbociclib] + CN(CC[C@H](CSC1=CC=CC=C1)NC2=C(C=C(C=C2)S(=O)(=O)NC(=O)C3=CC=C(C=C3)N4CCC(CC4)[C@H](C5=CC=CC=C5C6=CC=C(C=C6)Cl)O)S(=O)(=O)C(F)(F)F)CCO [AZD4320] (first compound max 10 µM, 7x7, partner max 1 µM) | -0.0276 | -0.109 | -0.0062 | -0.0228 | -0.0614 | 0.0594 |  | -0.0524 | -0.0554 |  |  | -0.0104 |  |  |  | -0.121 | -0.193 |  | -0.0718 | 0.0001
C[C@@H](c1ccc2nccn2c1)n1nnc2ncc(-c3cnn(C)c3)nc21 [Savolitinib] + CN(CC[C@H](CSC1=CC=CC=C1)NC2=C(C=C(C=C2)S(=O)(=O)NC(=O)C3=CC=C(C=C3)N4CCC(CC4)[C@H](C5=CC=CC=C5C6=CC=C(C=C6)Cl)O)S(=O)(=O)C(F)(F)F)CCO [AZD4320] (first compound max 1 µM, 7x7, partner max 1 µM) | -0.0664 | -0.0775 | -0.0665 | -0.011 | -0.0553 | -0.0131 |  | -0.0004 | -0.0736 |  |  | -0.0078 |  |  |  | -0.0577 | -0.0794 |  | -0.0473 | -0.0254
